Experiment [1] has as its target T1, Human CD73 (Homo sapiens, UniProt P21589).
T1 construct: purchased R&D Systems; host or cells: CHO cells
T1 sequence (P21589 27-549): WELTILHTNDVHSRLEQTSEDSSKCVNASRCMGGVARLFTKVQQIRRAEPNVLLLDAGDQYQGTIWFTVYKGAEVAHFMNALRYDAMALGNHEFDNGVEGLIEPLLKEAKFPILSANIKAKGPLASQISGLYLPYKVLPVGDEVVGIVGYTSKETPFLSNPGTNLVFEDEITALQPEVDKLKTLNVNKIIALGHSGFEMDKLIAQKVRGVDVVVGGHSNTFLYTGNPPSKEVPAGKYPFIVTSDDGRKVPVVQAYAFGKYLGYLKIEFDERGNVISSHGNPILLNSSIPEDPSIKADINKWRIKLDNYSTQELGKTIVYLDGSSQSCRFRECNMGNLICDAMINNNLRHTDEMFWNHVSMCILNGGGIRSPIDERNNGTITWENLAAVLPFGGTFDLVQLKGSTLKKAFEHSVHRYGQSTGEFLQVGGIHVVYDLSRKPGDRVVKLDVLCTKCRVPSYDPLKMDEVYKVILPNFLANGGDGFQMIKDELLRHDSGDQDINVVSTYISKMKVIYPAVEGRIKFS
As to the kind of experiment: CD73 Enzyme Assay. In kind it is biochemical. The note with it: 0.25 nM hCD73, 25 μM AMP, kinetic read at 360 nm; read-out: CD73 Enzyme Assay IC50.

For experiment [2], the target named is T2, CD73 on U138 human neuroglioma cells (Homo sapiens, UniProt P21589).
T2 construct: U138 cells were obtained from ATCC and cultured in DMEM with 10% FBS; host or cells: U138 human neuroglioma cells
T2 sequence (P21589 27-549): T1 sequence (P21589 27-549)
As to the kind of experiment: CD73 Cell-Based Assay. The note with it: U138 cells, AMP substrate, 2 hours at 37° C., inorganic phosphate by malachite green. The essentials:
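Whole U138 cells washed free of phosphate were incubated with 200 μM AMP (mixture concentration before equal-volume addition) plus compound in HEPES-buffered saline, pH 7.4, for 2 h at 37 °C, 5% CO2. Adenosine-forming activity read as inorganic phosphate released into supernatant by malachite green.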

We go through nine molecules from patent US11591355B2 (Peloton Therapeutics, Inc., priority 2017, dated 2023).

What is called IC50 is the concentration that inhibits the measured activity by half. On to `O=P(O)(O)CS(=O)(=O)C[C@H]1O[C@@H](n2ccc3c(NC4CCCC4)nc(C(F)F)nc32)[C@H](O)[C@@H]1O` [Compound 289, [(2S,3S,4R,5R)-5-[4-(cyclopentylamino)-2-(difluoromethyl)-pyrrolo[2,3-d]-pyrimidin-7-yl]-3,4-dihydroxy-tetrahydro-furan-2-yl]methyl-sulfonylmethylphos-phonic acid], for which the IC50 in experiment [1] and in experiment [2] was under 10 nM in each case.

As to `CC(Nc1ncnc2c1ncn2[C@@H]1O[C@H](COCP(=O)(O)O)[C@@H](O)[C@H]1O)c1ccccc1` (stereo partly drawn) [Compound 18, [(2R,3S,4R,5R)-3,4-dihydroxy-5-[6-(1-phenylethylamino)purin-9-yl]tetrahydrofuran-2-yl]methoxymethylphosphonic acid], the IC50 in experiment [1] and in experiment [2] was 100 to 1000 nM each time.

`C[C@@H](Nc1nc(Cl)nc2c1ccn2[C@@H]1O[C@H](CS(=O)(=O)CP(=O)(O)O)[C@@H](O)[C@H]1O)c1ccc(F)cc1F` [Compound 178, (((((2S,3S,4R,5R)-5-(2-chloro-4-(((R)-1-(2,4-difluorophenyl)ethyl)amino)-7H-pyrrolo[2,3-d]pyrimidin-7-yl)-3,4-dihydroxytetrahydrofuran-2-yl)methyl)sulfonyl)methyl)phosphonic acid]: the IC50 in experiment [1] and in experiment [2] was under 10 nM each time.

Regarding `N#Cc1nc(NCc2ccccc2)c2ncn([C@@H]3O[C@H](COCP(=O)(O)O)[C@@H](O)[C@H]3O)c2n1` [Compound 4, [(2R,3S,4R,5R)-5-[6-(benzylamino)-2-cyano-purin-9-yl]-3,4-dihydroxy-tetrahydrofuran-2-yl]methoxymethyl-phosphonic acid], the values for the IC50 in experiment [1] and in experiment [2] were under 10 nM and 100 to 1000 nM, respectively.

As to `CC(C)Nc1nc(C#N)nc2c1ccn2[C@@H]1O[C@H](COCP(=O)(O)O)[C@@H](O)[C@H]1O` [Compound 97, [(2R,3S,4R,5R)-5-[2-cyano-4-(isopropyl-amino)pyrrolo[2,3-d]-pyrimidin-7-yl]-3,4-dihydroxy-tetrahydro-furan-2-yl]methoxy-methylphosphonic acid], the IC50 was 10 to 100 nM in experiment [1] and under 10 nM in experiment [2].

Take `O=P(O)(O)COC[C@H]1O[C@@H](n2ccc3c(NC4CCCC4)nc(OCCCO)nc32)[C@H](O)[C@@H]1O` [Compound 258, [(2R,3S,4R,5R)-5-[4-(cyclopentylamino)-2-(3-hydroxypropoxy)-pyrrolo[2,3-d]pyrimidin-7-yl]-3,4-dihydroxy-tetrahydrofuran-2-yl]-methoxymethylphos-phonic acid]: the IC50 in experiment [1] was 10 to 100 nM; in experiment [2], under 10 nM.

`Cn1cc(-c2nc(NCc3ccccc3)c3ncn([C@@H]4O[C@H](COCP(=O)(O)O)[C@@H](O)[C@H]4O)c3n2)cn1` [Compound 9, [(2R,3S,4R,5R)-5-[6-(benzylamino)-2-(1-methylpyrazol-4-yl)-purin-9-yl]-3,4-dihydroxy-tetrahydro-furan-2-yl]methoxy-methylphosphonic acid]: the IC50 in experiment [1] was 100 to 1000 nM; in experiment [2], over 1000 nM.

In the case of `C[C@H](Nc1nc(C#N)nc2c1cnn2[C@@H]1O[C@H](CS(=O)(=O)CP(=O)(O)O)[C@@H](O)[C@H]1O)c1ccc(F)cc1` [Compound 307, [(2S,3S,4R,5R)-5-[6-cyano-4-[[(1S)-1-(4-fluorophenyl)ethyl]-amino]pyrazolo[3,4-d]pyrimidin-1-yl]-3,4-dihydroxy-tetrahydro-furan-2-yl]methyl-sulfonylmethylphos-phonic acid], the IC50 was 10 to 100 nM in experiment [1] and under 10 nM in experiment [2].

`O=P(O)(O)COC[C@H]1O[C@@H](n2cnc3c(-c4ccccc4)ncnc32)[C@H](O)[C@@H]1O` [Compound 46, [(2R,3S,4R,5R)-3,4-dihydroxy-5-(6-phenylpurin-9-yl)tetrahydrofuran-2-yl]methoxymethylphosphonic acid]: the IC50 in experiment [1] and in experiment [2] was over 1000 nM throughout.
